For this test, the target named is T1, human α7 nAChR stably expressed in a HEK cell line (with human RIC-3) (Homo sapiens, UniProt P36544).
T1 construct: PrecisION hnAChR α7/RIC-3
Description: Automated patch-clamp electrophysiology functional assay (Assay A), IonFlux HT, whole-cell population patch. The class given is cell-based. The protocol: The α7 nAChR positive allosteric modulator (PAM) activity of the present compounds may be tested using assays known in the art. The α7 nAChR PAMs described herein have activities in an automated patch-clamp electrophysiology functional assay as described in the examples. The assay was performed using the IonFlux HT in a whole-cell, population patch configuration. See Golden et al. Assay Drug Dev. Technol. (2011) 9:608-619. The compounds were assessed for their ability to modulate the function of the human α7 nAChR stably expressed in a HEK cell line both in the presence, and in the absence of the natural α7 agonist acetylcholine. By performing a series of such measurements at different concentrations, the effective concentration of the α7 nAChR PAMs (EC50) was determined. See Spencer et al. Assay Drug Dev. Technol. (2012) 10:313-324.
Direct activation of α7 (agonism), and potentiation of 5 acetylcholine-evoked α7 currents was determined as follows:
Automated Patch-Clamp Electrophysiology Functional Assay (Assay A)
Automated patch-clamp electrophysiology was performed using the IonFlux HT (Fluxion Biosciences Inc., San Francisco, Calif.) in the whole-cell, population patch configuration. Test compounds were assessed for their ability to modulate the function of the α7 nicotinic acetylcholine receptor both in the presence, and in the absence of the natural α7 agonist acetylcholine. A HEK cell line stably expressing both human RIC-3 and human α7 (PrecisION hnAChR α7/RIC-3, Eurofins Pharma, St. Charles, Mo.) was cultured in 175 cm^2 triple-layer tissue culture flasks to no more than 90% confluency in DMEM/F-12 growth media supplemented with 10% heat-inactivated fetal bovine serum, 1% non-essential amino acids, 0.625 μg/mL Puromycin, and 400 μg/mL Geneticin. Immediately prior to assay, cells were detached by first aspirating growth media, rinsing with Dulbecco's phosphate buffered saline, and then adding 10 mL of Accutase (Innovative Cell Technologies, San Diego, Calif.) to the flask and then incubating at 37° C. for 5 minutes. Detached cells were then recovered by the addition of 40 mL of CHO-serum-free media supplemented with 25 mM HEPES, and rocked gently in a 50 mL conical tube for 20 minutes prior to patch-clamp assay. After recovery, cells were pelleted by centrifugation at 1,000 RPM for 1 minute in a compact bench top centrifuge; recovery media was aspirated and cells were resuspended in external recording solution (150 mM NaCl, 5 mM KCl, 2 mM CaCl2, 1 mM MgCl2, 10 mM HEPES, 12 mM dextrose) to a density of 5.0×10^6 cells/mL. The cell suspension was added to the cell inlet wells on an IonFlux HT population patch plate which had previously been rinsed and primed with deionized H2O. Test compounds were serially diluted in DMSO and then resuspended to the final test concentration in external recording solution, with, or without […] acetylcholine added to the external recording solution; test compounds were then transferred to the IonFlux HT population patch plate. Internal recording solution (110 mM TrisPO4, 28 mM TrisBase, 0.1 mM CaCl2, 2 mM MgCl2, 11 mM EGTA, 4 mM MgATP) was added to the internal recording solution inlet wells on the IonFlux HT patch plate previously loaded with cells and test compounds, and the plate loaded into the IonFlux HT instrument. A protocol was executed on the IonFlux HT to trap the cells, break into the cells, and establish the whole-cell recording configuration; cells were voltage-clamped at a holding potential of −60 mV for the duration of the experiment, all experiments were conducted at room temperature, and the IonFlux HT injection pressure was 8 psi for solution applications. Upon establishing the whole-cell configuration, external recording solution was perfused into the recording chambers for 120 seconds and then 40 μM acetylcholine was applied for 1 second and immediately washed off with external recording solution for 60 seconds. […]
For orientation: In patch-clamp work, channel activity is measured electrically.

[1] abbreviates: automated patch-clamp electrophysiology functional assay (Assay A), potency class by EC50, read-out: α7 nAChR Potency.
Setting [2] is: electrophysiology EC50, HEK cells expressing human α7/RIC-3, 40 μM acetylcholine, holding potential −60 mV, room temperature, read-out: α7 nAChR EC50.

The source of these data is patent US9840481B2, “Allosteric modulators of nicotinic acetylcholine receptors” (MERCK SHARP & DOHME CORP., priority 2016, dated 2017).

Like-named read-outs stand apart in the source and are kept apart here. A value given as a limit tells only on which side of the number the result lay.

T1 sequence (P36544 23-502): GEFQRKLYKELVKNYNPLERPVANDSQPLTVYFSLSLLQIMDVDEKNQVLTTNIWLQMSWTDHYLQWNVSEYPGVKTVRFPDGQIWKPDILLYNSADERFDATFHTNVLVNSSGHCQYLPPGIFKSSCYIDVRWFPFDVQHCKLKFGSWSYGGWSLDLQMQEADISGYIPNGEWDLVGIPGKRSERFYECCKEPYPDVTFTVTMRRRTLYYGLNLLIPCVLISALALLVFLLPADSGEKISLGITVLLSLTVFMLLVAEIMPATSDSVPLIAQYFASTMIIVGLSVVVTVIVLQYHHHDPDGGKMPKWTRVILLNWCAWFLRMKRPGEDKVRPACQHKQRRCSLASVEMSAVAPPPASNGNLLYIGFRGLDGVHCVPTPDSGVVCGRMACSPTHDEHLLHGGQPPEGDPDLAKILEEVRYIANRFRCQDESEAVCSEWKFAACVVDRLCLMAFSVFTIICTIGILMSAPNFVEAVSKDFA

As for `CC(C)Oc1ccc(Cl)cc1-c1noc([C@@H]2[C@@H](c3ccc(S(N)(=O)=O)cc3)C2(C)C)n1` [Example A4], the EC50 reads like this: under setting [1], 0.5 to 5 µM; under setting [2], 4.8 µM.

Take `CC(C)Oc1ccc(Cl)cc1-c1noc([C@H]2[C@H](c3ccc(S(N)(=O)=O)cc3)C2(C)C)n1` [Example C3]: the EC50 is 5 to 50 µM under setting [1] and 6.1 µM under setting [2].

Turning to `CC1(C)[C@@H](c2ccc(S(N)(=O)=O)cc2)[C@@H]1c1nc(C2CC(F)(F)C2)no1` [Example D18], the EC50 by setting is: under setting [1], at most 0.1 µM; under setting [2], 0.095 µM.

As for `NS(=O)(=O)c1ccc([C@@H]2C[C@H]2c2nc(-c3c(F)cccc3F)no2)cc1` [Example C9], the EC50 under setting [1] lay within 0.5 to 5 µM.

On to `NS(=O)(=O)c1ccc(C2CC2c2nc(-c3cccc(F)c3)ns2)cc1` (single isomer, unassigned) [Example M4], for which the EC50 under setting [1] fell in the range of 0.1 to 0.5 µM and the EC50 under setting [2] was found to be 0.21 µM.

On to `CC1(C)[C@@H](c2ccc(S(N)(=O)=O)cc2)[C@@H]1c1nc(C2CCCCC2O)no1` (some centres unmarked) [Example D32], for which the EC50 under setting [1] was 0.5 to 5 µM.

In the case of `Cc1ccccc1-c1noc([C@@H]2C[C@H]2c2ccc(S(N)(=O)=O)cc2)n1` [Example C17], under setting [1], the EC50 was 0.1 to 0.5 µM.

With `CC1(C)C(c2ccc(S(N)(=O)=O)cc2)C1c1cc(C2CCCC2)on1` (stereo not drawn) [Example 34, 4-(trans-3-(5-Cyclopentylisoxazol-3-yl)-2,2-dimethylcyclopropyl)benzenesulfonamide], the EC50 is 0.1 to 0.5 µM under setting [1] and 0.16 µM under setting [2].

On to `CC1(C)[C@@H](c2ccc(S(C)(=O)=O)cc2)[C@@H]1c1nc(-c2ccccc2)no1` (relative stereo) [Example 33], for which the EC50 reads like this: under setting [1], 0.5 to 5 µM; under setting [2], 1.1 µM.

Turning to `CC1(C)[C@@H](c2ccc(S(N)(=O)=O)cc2)[C@@H]1c1ncc(C2CCCC2)s1` [Example K16], the EC50 under setting [1] was 0.5 to 5 µM.

In the case of `NS(=O)(=O)c1ccc([C@H]2C[C@@H]2c2nc(-c3ccccc3)no2)cc1` [Example A5], the EC50 by setting is: under setting [1], 5 to 50 µM; under setting [2], 7.3 µM.

For `CC1(C)[C@@H](c2ccc(S(N)(=O)=O)cc2)[C@@H]1c1noc(C(O)C(F)(F)F)n1` (some centres unmarked) [Example I28], under setting [1], the EC50 fell in the range of 0.5 to 5 µM.

Turning to `Cc1cccc(-c2noc([C@@H]3C[C@H]3c3ccc(S(N)(=O)=O)cc3)n2)c1` [Example C18], under setting [1], the EC50 is 0.1 to 0.5 µM.

As for `Cc1ncoc1-c1nc([C@H]2[C@H](c3ccc(S(N)(=O)=O)cc3)C2(C)C)no1` [Example I7], the EC50 by setting is: under setting [1], 0.5 to 5 µM; under setting [2], 0.71 µM.

With `COc1ccc(Cl)cc1-c1noc([C@H]2[C@H](c3ccc(S(N)(=O)=O)cc3)C2(C)C)n1` [Example C1], under setting [1], the EC50 lay in the range of 5 to 50 µM.

As to `CC1(C)[C@H](c2ccc(S(N)(=O)=O)cc2)[C@H]1c1noc(N2CCCCC2)n1` [Example L20], the EC50 under setting [1] is 0.5 to 5 µM and the EC50 under setting [2] worked out at 1.3 µM.

On to `CC1(C)[C@@H](c2ccc(S(N)(=O)=O)cc2)[C@@H]1c1noc(-c2cccc3c2OCC(=O)N3)n1` [Example I31], for which the EC50 under setting [1] lay within 0.5 to 5 µM.

In the case of `NS(=O)(=O)c1ccc([C@@H]2C[C@H]2c2nc(C3CC(F)(F)C3)no2)cc1` [Example D19], under setting [1], the EC50 lay in the range of 0.5 to 5 µM.

Turning to `CC1(C)[C@@H](c2ccc(S(N)(=O)=O)cc2)[C@@H]1c1nnc(-c2cccc(F)c2)o1` [Example G3], the EC50 was 0.5 to 5 µM under setting [1] and 0.74 µM under setting [2].

Consider `NS(=O)(=O)c1ccc(C2C(c3nc(-c4ccccc4)no3)C23CCCC3)cc1` (single isomer, unassigned) [Example M3], for which the EC50 by setting is: under setting [1], at most 0.1 µM; under setting [2], 0.083 µM.

Turning to `NS(=O)(=O)c1ccc([C@@H]2C[C@H]2c2nc(-c3cccc(F)c3F)no2)cc1` [Example C15], the EC50 under setting [1] is 0.1 to 0.5 µM and the EC50 under setting [2] turned out to be 0.34 µM.

Consider `NS(=O)(=O)c1ccc([C@@H]2C[C@H]2c2csc(-c3ccccc3)n2)cc1` [Example 25, 4-[(1R,2R)-2-(2-Phenyl-1,3-thiazol-4-yl)cyclopropyl]benzenesulfonamide], for which the EC50 under setting [1] lay in the range of 0.5 to 5 µM and the EC50 under setting [2] was found to be 0.98 µM.

As to `CC1(C)[C@H](c2ccc(S(N)(=O)=O)cc2)[C@H]1c1nc(-c2cncc(F)c2)no1` [Example B2], the EC50 under setting [1] lay in the range of 0.5 to 5 µM.

Consider `CC1(C)[C@@H](c2ccc(S(N)(=O)=O)cc2)[C@@H]1c1noc(Cn2c(=O)oc3ccc(Cl)cc32)n1` [Example I5], for which, under setting [1], the EC50 was 0.5 to 5 µM.

In the case of `NS(=O)(=O)c1ccc([C@@H]2C[C@H]2c2nc(-c3ccc(F)cc3C(F)(F)F)no2)cc1` [Example C7], the EC50 was 0.5 to 5 µM under setting [1] and 0.96 µM under setting [2].

With `CCc1coc([C@H]2[C@H](c3ccc(S(N)(=O)=O)cc3)C2(C)C)n1` [Example K8], the EC50 reads like this: under setting [1], 0.5 to 5 µM; under setting [2], 0.54 µM.

`NS(=O)(=O)c1ccc([C@@H]2C[C@H]2c2noc(N3CCCCC3)n2)cc1` [Example 37, 4-{(1R,2R)-2-[5-(Piperidin-1-yl)-1,2,4-oxadiazol-3-yl]cyclopropyl}benzenesulfonamide]: the EC50 was 0.1 to 0.5 µM under setting [1] and 0.24 µM under setting [2].

In the case of `CC1(C)[C@@H](c2ccc(S(N)(=O)=O)cc2)[C@@H]1c1nc(-c2ccc(F)cc2C(F)(F)F)no1` [Example C2], the EC50 under setting [1] was in the range of 0.5 to 5 µM.

As to `CCOc1nc([C@@H]2[C@@H](c3ccc(S(N)(=O)=O)cc3)C2(C)C)ns1` [Example L9], under setting [1], the EC50 lay within 0.5 to 5 µM.

Turning to `CC1(C)[C@H](c2ccc(S(N)(=O)=O)cc2)[C@H]1c1nnc(-c2c(F)cccc2C(F)(F)F)o1` [Example F3], the EC50 was 0.5 to 5 µM under setting [1] and 4.7 µM under setting [2].

On to `NS(=O)(=O)c1ccc([C@H]2C[C@@H]2c2nc(-c3ccc(F)cc3F)no2)cc1` [Example A8], for which the EC50 under setting [1] was in the range of 5 to 50 µM.

Consider `CC1(C)[C@@H](c2ccc(S(N)(=O)=O)cc2)[C@@H]1c1noc(-c2c[nH]c(C3CC3)n2)n1` [Example I8], for which the EC50 under setting [1] lay in the range of 0.5 to 5 µM and the EC50 under setting [2] came to 4.4 µM.

Turning to `CC(C)c1cnc([C@H]2[C@H](c3ccc(S(N)(=O)=O)cc3)C2(C)C)s1` [Example 21, 4-{(1S,3S)-2,2-Dimethyl-3-[5-(propan-2-yl)-1,3-thiazol-2-yl]cyclopropyl}benzenesulfonamide], the EC50 is 0.1 to 0.5 µM under setting [1] and 0.39 µM under setting [2].

Consider `CC1(C)[C@@H](c2ccc(S(N)(=O)=O)cc2)[C@@H]1c1noc(C2CN(C(=O)C3CC3)C2)n1` [Example I23], for which, under setting [1], the EC50 was in the range of 0.5 to 5 µM.

On to `Cc1ncccc1-c1noc([C@@H]2C[C@H]2c2ccc(S(N)(=O)=O)cc2)n1` [Example D16], for which the EC50 runs as follows: under setting [1], 0.5 to 5 µM; under setting [2], 1.3 µM.

In the case of `CC1(C)[C@H](c2ccc(S(N)(=O)=O)cc2)[C@H]1c1nc(C2CC3(CCC3)C2)no1` (some centres unmarked) [Example B15], under setting [1], the EC50 lay within 0.5 to 5 µM.

Turning to `CC1(C)[C@H](c2ccc(S(N)(=O)=O)cc2)[C@H]1c1noc(C2CCCCC2)n1` [Example L16], the EC50 under setting [1] lay within 0.5 to 5 µM.

Take `CC1(C)[C@H](c2ccc(S(N)(=O)=O)cc2)[C@H]1c1nc(-c2ccc(F)cc2F)no1` [Example A7]: the EC50 runs as follows: under setting [1], 0.5 to 5 µM; under setting [2], 1.3 µM.

Turning to `CC1(C)[C@H](c2ccc(S(N)(=O)=O)cc2)[C@H]1c1nc(C2(c3ccccc3)CC2)no1` [Example B13], the EC50 was 0.5 to 5 µM under setting [1] and 4.1 µM under setting [2].

For `CC1(C)[C@H](c2ccc(S(N)(=O)=O)cc2)[C@H]1c1noc(-c2cccc(F)c2)n1` [Example L18], the EC50 reads like this: under setting [1], 0.1 to 0.5 µM; under setting [2], 0.22 µM.

In the case of `CC1(C)[C@H](c2ccc(S(N)(=O)=O)cc2)[C@H]1c1nc(C2CCCC2)no1` [Example B9], the EC50 is 0.5 to 5 µM under setting [1] and 1 µM under setting [2].
